Source: BindingDB's records for doi:10.1080/14756360400004565 (Universit&Eacute, 2004)

Target: Glycogen synthase kinase-3 beta (Homo sapiens, UniProt P49841)
Experiment: Kinase Assay
Description: Kinase activities were assayed according to the methodology developed by the Cell Cycle Group of the Station Biologique (CNRS).

Glycogen synthase kinase-3 beta, sequence (P49841 whole entry): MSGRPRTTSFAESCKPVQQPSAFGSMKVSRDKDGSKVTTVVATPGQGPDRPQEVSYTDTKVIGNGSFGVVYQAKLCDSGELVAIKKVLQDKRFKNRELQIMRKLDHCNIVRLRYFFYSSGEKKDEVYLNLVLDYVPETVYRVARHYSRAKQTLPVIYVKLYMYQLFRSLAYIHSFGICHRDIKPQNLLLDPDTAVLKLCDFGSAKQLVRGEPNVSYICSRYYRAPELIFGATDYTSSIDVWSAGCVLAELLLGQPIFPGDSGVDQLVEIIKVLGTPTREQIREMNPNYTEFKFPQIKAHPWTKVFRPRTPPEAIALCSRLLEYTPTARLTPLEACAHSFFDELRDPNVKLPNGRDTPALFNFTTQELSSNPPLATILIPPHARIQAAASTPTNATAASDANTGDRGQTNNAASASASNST

| Structure (SMILES) | IC50 |
| --- | --- |
| CCOc1ccc(-c2csc3c2-n2cccc2C3=O)cc1 [Thienopyrrolizine derivative, 4c] | > 50 µM |
| COc1ccc(-c2csc3c2-n2cccc2C3O)cc1O (centres undefined) [Thienopyrrolizine derivative, 13g] | 19 µM |
| CC(=O)Oc1ccc(-c2csc3c2-n2cccc2C3=O)cc1OC(C)=O [Thienopyrrolizine derivative, 4h] | > 50 µM |
| COc1cccc(-c2csc3c2-n2cccc2C3=O)c1 [Thienopyrrolizine derivative, 4b] | > 50 µM |
| COc1ccc(-c2csc3c2-n2cccc2C3=O)cc1OC(=O)CCCC(=O)O [Thienopyrrolizine derivative, 4n] | 11 µM |
| CCC(=O)Oc1ccc(-c2csc3c2-n2cccc2C3=O)cc1OC(=O)CC [Thienopyrrolizine derivative, 4i] | > 50 µM |
| COc1ccc(-c2csc3c2-n2cccc2C3=O)cc1OC(=O)C(C)(C)C [Thienopyrrolizine derivative, 4m] | > 50 µM |
| O=C1c2cscc2-n2cccc21 [Thienopyrrolizine derivative, 5] | > 50 µM |
| Cc1ccc(-c2csc3c2-n2cccc2C3=O)cc1 [Thienopyrrolizine derivative, 4a] | > 50 µM |

The next lines start with the values.

| IC50 | Structure (SMILES) |
| --- | --- |
| > 50 µM | COc1ccc(-c2csc3c2-n2cccc2C3O)cc1OCc1ccccc1 (centres undefined) [Thienopyrrolizine derivative, 13e] |
| 1.5 µM | COc1ccc(-c2csc3c2-n2cccc2C3=O)cc1O [MR-22388] |
| > 50 µM | COc1ccc(-c2csc3c2-n2cccc2C3=O)cc1OCc1ccccc1 |
| > 50 µM | CCOC(=O)Oc1cc(-c2csc3c2-n2cccc2C3=O)ccc1OC [Thienopyrrolizine derivative, 4l] |
| > 50 µM | COc1ccc(-c2csc3c2-n2cccc2C3=O)cc1OC(C)=O [Thienopyrrolizine derivative, 4k] |
